Test results reported in US20220315572A1, “SUBSTITUTED CYANOPYRROLIDINES WITH ACTIVITY AS USP30 INHIBITORS” (MISSION THERAPEUTICS LIMITED, priority 2019, published 2022).
In brackets after ≈: the same amount, converted by molar mass.

Tests used:
[1] = system: Eurofins CEREP SafetyScreen44 panel; assay: Eurofins CEREP SafetyScreen44 panel; format: binding; conditions: single concentration of 10 μM, all targets in the panel
Description: Aside from selectivity over other DUB enzymes, it is important for a drug to have low affinity for other targets, and pharmacological profiling may be performed against panels of targets to assess the potential for, and to minimise, potential off-target effects. Examples of targets for which the compounds of the present invention may be screened against are those of the industry standard Eurofins-Cerep SafetyScreen44 panel, which includes 44 targets as a representative selection of GPCR receptors, transporters, ion channels, nuclear receptors, and kinase and non-kinase enzymes. Preferably, compounds of the invention have insignificant affinity against targets of this screening panel. Further examples of targets for which the compounds of the present invention may be screened against are kinases of the Thermo Fisher SelectScreen kinase profiling panel, which includes 39 targets as a representative selection of kinase enzymes. Preferably, compounds of the invention have insignificant affinity against targets of this screening panel. Additionally, examples of a particular enzyme class for which the compounds of the present invention may be screened against are the cathepsins (e.g. cathepsin A, B, C, H, K, L, S, V and Z). Preferably, compounds of the invention have good selectivity for USP30 over one or more of these enzymes. […]

[2] = system: UCHL1, USP2, USP4, USP8, USP10, USP12/UAF1, USP15, USP16, USP21, USP22, USP25, USP28, USP35, USP36, USP46/UAF1; assay: DUB biochemical IC50 assays, off-target panel; conditions: bound over all 15 DUBs listed
Hepatocyte Cl human = format: in vitro ADME; conditions: human hepatocytes
Description: Hep Cl human: in vitro hepatocyte clearance in human cells.
Clu: in vitro clearance. Clu as defined here is the scaled clearance, in turn calculated from the intrinsic clearance. The intrinsic clearance is the predicted clearance due to hepatic metabolic reactions, determined from incubation of a compound in a hepatocyte preparation.

TK6 cells = assay: In vitro micronucleus assay; format: cell-based; conditions: 27 hours recovery
Description: The micronucleus assay may be used to determine if a compound is genotoxic by evaluating the presence of micronuclei. Micronuclei may contain chromosome fragments produced from DNA breakage (clastogens) or whole chromosomes produced by disruption of the mitotic apparatus (aneugens).
Example 1 was assessed in the bacterial reverse mutation assay (Ames) and in vitro micronucleus assay. All in vitro tests were conducted with and without exogenous metabolic activation using concentrations up to those limited by cytotoxicity or insolubility.
Induction of chromosome damage was assessed using the in vitro micronucleus assay in TK6 cells. Example 1 was negative for induction of micronuclei when incubated for 3 hours in the presence of exogenous metabolic activation followed by 27 hours recovery, and also when incubated for 27 hours in the absence of exogenous metabolic activation followed by 27 hours recovery.

Mouse plasma stability = format: in vitro ADME; conditions: read-out: Stability Mouse plasma t1/2
Description: Other parameters that may be measured using standard assays that are indicative of a compound's exposure profile include, for example plasma stability (half-life measurement), blood AUC, Cmax, Cmin and Tmax values.

[3] = Plasma free fraction, equilibrium dialysis; format: in vitro ADME; conditions: mouse plasma; read-out: Binding Mouse Plasma fu, p
Description: Plasma fu,p: The free fraction of a compound in plasma preparation determined by in vitro equilibrium dialysis. It is understood that only unbound (free) compound is capable of engaging with the target.

FaSSIF solubility = format: physicochemical; conditions: simulated intestinal fluid, fasted state
Description: FaSSIF: simulated intestinal fluid in fasted state measured at pH 6.5.

UUO injured kidneys = assay: Unilateral ureteral obstructive kidney disease model (UUO); format: in vivo, C57BL/6 mice; conditions: 10 days
Description: (f) The unilateral ureteral obstructive kidney disease model (UUO). [Chevalier et al, 2009, Kidney Int 75(11): 1145-1152] UUO causes renal injury characterised by tubular cell injury, interstitial inflammation and fibrosis. It serves as a model of irreversible post-renal acute kidney injury (AKI). Experimental UUO has illustrated the molecular mechanisms of apoptosis, inflammation and fibrosis, all of which are key processes in renal injury, regardless of the primary insult. Consequently, the UUO model provides investigators information beyond obstruction. Example 1 was assessed in the UUO model to determine the ability of the compound to attenuate progressive tubulointerstitial fibrosis and chronic kidney disease (CKD). On day 1 of the study, adult C57BL/6 mice were dosed by oral gavage according to one of the following dosing regimens; Vehicle or 5 mg/kg Example 1 BID. Two hours post dosing on day 1 study mice underwent surgery to ligate the left ureter at two points. Successful UUO surgery was later confirmed by observation of dilation of renal pelvis due to hydronephrosis. The animals were dosed according to their prescribed regimen for 10 days at which point kidneys were harvested, or histopathology assessment and for protein/RNA assessment. […]

PK mouse = format: in vivo
Description: Cl in vivo clearance: Pharmacokinetic measurement of the volume of plasma (or any matrix) from which a substance is completely removed per unit time.
Oral F: Oral Bioavailability.
Kpu,u is the ratio of unbound drug in brain to unbound drug in plasma and may be indicative of potential for treating peripheral and/or CNS indications.

Turbidimetric solubility = format: physicochemical; conditions: aqueous buffer, kinetic from dmso stock
Description: Turbidimetric solubility: Test compound solution prepared in DMSO diluted into aqueous buffer.
Turbidimetry is used as the end-point by measuring absorbance at 620 nm.

[4] = system: P-glycoprotein (MDR1), human; assay: MDR1-MDCK flux assay; format: in vitro ADME, Canine; conditions: dog
Description: The treatment of CNS disorders, including Alzheimer's disease, Parkinson's disease, and other disorders described herein, requires drug molecules to target the brain, which requires adequate penetration of the blood brain barrier. […] The probability that a compound can cross the blood brain barrier may be measured by an in vitro flux assay utilizing a MDR1-MDCK cell monolayer (Madin-Darby Canine Kidney cells transfected with MDR-1 resulting in overexpression of the human efflux transporter P-glycoprotein). Additionally, exposure may also be measured directly in brain and plasma using in vivo animal models.
MDR1-MDCK (Madin-Darby Canine Kidney cell monolayer) (in vitro) flux assay.

## C[C@@H]1C[C@@H](NC(=O)c2nnc(-c3cccc(C#N)c3)o2)CN1C#N [Example 1, N-((3R,5R)-1-Cyano-5-methylpyrrolidin-3-yl)-5-(3-cyanophenyl)-1,3,4-oxadiazole-2-carboxamide]
[1]
  inhibition of binding or enzyme activity: less than 25%
[2]
  IC50: ≥ 5.8 µM
Hepatocyte Cl human
  Hepatocyte Cl human scaled Clu: 6 mL/min/kg
TK6 cells; 3 hours in the presence of exogenous metabolic activation
  induction of micronuclei: negative
TK6 cells; 27 hours in the absence of exogenous metabolic activation
  induction of micronuclei: negative
Mouse plasma stability
  half-life: > 33.3 h
[3]
  fraction unbound: 0.54
FaSSIF solubility
  FaSSIF (μM) measured at pH 6.5: 415 μM
UUO injured kidneys; 5 mg/kg oral BID, compared to vehicle treated controls
  α-SMA levels in UUO injured kidneys: statistically reduced α-SMA levels
UUO injured kidneys; 5 mg/kg p.o. BID
  collagen deposition, picrosirius red staining in ligated kidneys: statistically reduced collagen deposition
PK mouse; 10 mg/kg PO dose - mouse
  Unbound plasma Cmax/TOM20-Ub cell potency: 82-fold
PK mouse; blood, mouse 2 mg/kg iv, read-out: Cl blood
  clearance: 23 mL/min/kg
PK mouse; brain and plasma (unbound), 2 mg/kg IV dose - mouse, unbound brain to unbound plasma, read-out: Kpu, u
  Kp: 0.01
PK mouse; in vivo, po, mouse 10 mg/kg, read-out: Oral F (%)
  bioavailability: 48%
Turbidimetric solubility
  solubility: 65 µM (≈ 21 µg/mL)
[4]
  efflux ratio: 81
[4]; A-B
  Papp A→B: 0.9 ×10⁻⁶ cm/s
